Results: paper PMC2192098 (The Journal of Experimental Medicine, 1995)

What was measured:
[1] = tested on: HepG2 cells; alpha 1-antichymotrypsin synthesis; assay: alpha1-antichymotrypsin; assay type: cell-based, human; conditions: HepG2, 6 h, 37°C
HepG2 cells = conditions: cell lines such as HepG2; cited from earlier work
[2] = tested on: HepG2 cells; alpha 1-antichymotrypsin synthesis; conditions: lower doses of IL-6; cited from earlier work
FMLPR in HepG2 cells = target: T1, FMLPR in HepG2 cells (Homo sapiens, UniProt P21462); assay: Binding of radioiodinated FMLP analogue to HepG2 cells
T1 sequence (P21462 1-350): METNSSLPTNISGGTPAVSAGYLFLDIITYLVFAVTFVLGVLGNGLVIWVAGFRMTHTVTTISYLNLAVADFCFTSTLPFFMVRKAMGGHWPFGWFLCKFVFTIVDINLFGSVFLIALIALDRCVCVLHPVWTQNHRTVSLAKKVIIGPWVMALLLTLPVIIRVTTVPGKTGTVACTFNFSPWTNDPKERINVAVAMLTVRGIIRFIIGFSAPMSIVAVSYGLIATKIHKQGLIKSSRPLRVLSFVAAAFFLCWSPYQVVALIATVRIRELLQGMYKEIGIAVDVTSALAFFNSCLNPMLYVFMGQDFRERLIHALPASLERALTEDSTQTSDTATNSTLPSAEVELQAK

[3] = tested on: C5a and FMLP receptor-activated signal transduction pathways; conditions: background statement, no reference given; cited from earlier work
[4] = tested on: HepG2 cells; acute phase protein synthesis; assay: Synthesis of acute phase proteins in HepG2 cells; assay type: cell-based, human; conditions: for effect on C3 and albumin synthesis at higher concentrations: higher concentrations of chemotactic peptides, data not shown
neutrophils = conditions: cited from earlier work
[5] = tested on: HepG2 cells; complement C3 synthesis; assay: C3 synthesis in HepG2 cells; assay type: cell-based, human; conditions: for time at which increase in C3 synthesis becomes evident: C5a or FMLP 10 nM, HepG2, 37°C, Fig. 6; for effect on C3 synthesis: HepG2, 6 h, 37°C, 1 and 10 nM, Fig. 7
[6] = tested on: HepG2 cells; serum amyloid A or C-reactive protein synthesis; assay: Serum amyloid A and C-reactive protein synthesis in HepG2 cells; assay type: cell-based, human; conditions: data not shown
[7] = tested on: HepG2 cells; C5 synthesis; assay: C5 synthesis in HepG2 cells; assay type: cell-based, human; conditions: HepG2, 6 h, 37°C; 1 and 10 nM; Fig. 7
[8] = tested on: HepG2 cells; fibrinogen and C4 synthesis; assay: Fibrinogen and C4 synthesis in HepG2 cells; assay type: cell-based, human; conditions: data not shown
[9] = tested on: HepG2 cells; albumin synthesis; assay: Albumin synthesis in HepG2 cells; assay type: cell-based, human; conditions: for time at which decrease in albumin synthesis becomes evident: C5a or FMLP 10 nM, Fig. 6
[10] = tested on: HepG2 cells; complement Bf synthesis; assay: Complement Bf synthesis in HepG2 cells; assay type: cell-based, human; conditions: HepG2, 6 h, 37°C; 1 and 10 nM; Fig. 7
[11] = tested on: HepG2 cells; transferrin synthesis; assay: Transferrin synthesis in HepG2 cells; assay type: cell-based, human; conditions: HepG2, 6 h, 37°C; 1 and 10 nM; Fig. 7
[12] = tested on: HepG2 cells; alpha1-AT synthesis; assay: alpha1-antitrypsin; assay type: cell-based, human; conditions: HepG2, 6 h, 37°C; 1 and 10 nM; Fig. 7
[13] = tested on: vascular tissue, smooth muscle, mast cells; conditions: cited from earlier work
human endothelial cells = conditions: cited from earlier work
C5aR in HepG2 cells = conditions: cited from earlier work
[14] = HepG2, 10 h, IL-1β 10 ng/ml + IL-6 10 ng/ml as positive control, Fig. 5
[15] = HepG2, 37°C, 10 h, serum-free, C5a or FMLP 1 and 10 nM, Fig. 5
[16] = HepG2, 6 h, 37°C, 1 and 10 nM, Fig. 7

In the case of “IL-6: prototype acute phase cytokine IL-6”, the “concentration of maximal effect on alpha1-ACT synthesis” value ([1]; Fig. 9 right) is listed as 0.2 /xg/ml, the “effect on alpha1-ACT synthesis” value ([1]; IL-6, several concentrations from 0.2 μg/ml, Fig. 9 right) is listed as “increase” and the “changes in expression of acute phase genes” value (“changes in expression” below) (HepG2 cells) is listed as “changes in expression of at least several if not many acute phase genes”. The “effect on alpha1-ACT synthesis at lower doses” value [2] was “con- centration dependent at lower doses”.

In the case of “formylNLe-Leu-Phe-NLe-Tyr-Lys [radioiodinated FMLP analogue]”, the “binding of radioiodinated FMLP analogue to HepG2 cells” value (FMLPR in HepG2 cells; HepG2, 2 h at 4°C, Fig. 3A) is reported as “specific and saturable binding”, the “plasma membrane receptors per cell (R)” value (FMLPR in HepG2 cells; Scatchard plot, HepG2, 2 h at 4°C) is reported as ~6,000 plasma membrane receptors per cell and the Kd (FMLPR in HepG2 cells; Scatchard plot, HepG2 monolayers, 2 h at 4°C, DMEM, 10 mM Hepes, pH 7.2, 1 mg/ml BSA, 0.05% Tween 80, nonspecific: 200-fold (Fig. 3: 250-fold) molar excess unlabeled FMLP, gamma counting) is reported as ~2.47 nM.

For pertussis toxin, the “inhibition of C5a/FMLP receptor signal transduction” value [3] is listed as “is inhibited by pertussis toxin”.

For “IL-I~: cytokine (interleukin-1 beta; scan error)”, the “changes in expression” value (HepG2 cells) is given as “changes in expression of at least several if not many acute phase genes”.

In the case of leukemia inhibitory factor: cytokine, the “changes in expression” value (HepG2 cells) is given as “changes in expression of at least several if not many acute phase genes”.

For “formyl-methionyl-leucyl-phenylalanine [FMLP, reference compound]”, the “lowest concentration with evident effect on synthesis of acute phase proteins” value ([4]; abstract) is given as 1 nM, the “effect on C3 and albumin synthesis at higher concentrations” value [4] is given as “dissipation of the effect” and the “effect on neutrophil chemotaxis at supersaturating concentrations” value (neutrophils) is given as “abrogated at supersaturating concentra- tions”. For the same molecule, the neutrophil program activated (neutrophils) was “directed cell migration, release of active oxy- gen intermediates, and release of proteolytic and phlogistic granular contents”, the “time at which increase in C3 synthesis becomes evident” value [5] was 6 h and the “effect on C3 synthesis” value [5] was “increases”. The “magnitude of effect on C3 synthesis vs combined effect of IL-1β and IL-6” value [5, 14] was “less than but comparable in magnitude”, the “induction of serum amyloid A or C-reactive protein synthesis” value [6] was “no evidence for induc- tion” and the “effect on C5 synthesis” value [7] was “no effect”. For the same molecule, the “effect on fibrinogen and C4 synthesis” value [8] was “minimally and inconsistently increased”, the “alpha1-ACT synthesis at higher (supersaturating) concentrations” value ([1]; FMLP above 20 nM, Fig. 9 left) was “returns to control levels” and the “effect on alpha1-ACT synthesis” value ([1]; 1 and 10 nM, Fig. 7) was “increases”. For the same molecule, the “time at which decrease in albumin synthesis becomes evident” value ([9]; HepG2, 37°C) was 6 h, the “effect on albumin synthesis” value [9, 15] was “concentration-dependent decreases in synthesis of albumin” and the “effect on albumin synthesis” value [9, 16] was “decreases”. For the same molecule, the “concentration at which effect on albumin biosynthesis was first evident” value ([9]; HepG2, 10 h, Fig. 5) was 1 nM, the “magnitude of effect on albumin synthesis vs combination of IL-1β and IL-6” value [9, 14] was “less than but comparable” and the “effect on complement Bf synthesis” value [10] was “increases”. For the same molecule, the “effect on transferrin synthesis” value [11] was “decreases” and the “effect on alpha1-AT synthesis” value [12] was “no effect”.

B1: IL-11: cytokine (protein, UniProt P20809 22-199, looked up)
Interleukin-11: PGPPPGPPRVSPDPRAELDSTVLLTRSLLADTRQLAAQLRDKFPADGDHNLDSLPTLAMSAGALGALQLPGVLTRLRADLLSYLRHVQWLRRAGGSSLKTLEPELGTLQARLDRLLRRLQLLMSRLALPQPPPDPPAPPLAPPSSAWGGIRAAHAILGGLHLTLDWAVRGLLLLKTRL
In the case of B1, the “changes in expression” value (HepG2 cells) is listed as “changes in expression of at least several if not many acute phase genes”.

B2: IL-lc~: cytokine (interleukin-1 alpha; scan error) (protein, UniProt P01583 113-271, looked up)
Interleukin-1 alpha: SAPFSFLSNVKYNFMRIIKYEFILNDALNQSIIRANDQYLTAAALHNLDEAVKFDMGAYKSSKDDAKITVILRISKTQLYVTAQDEDQPVLLKEMPEIPKTITGSETNLLFFWETHGTKNYFTSVAHPNLFIATKQDYWVCLAGGPPSITDFQILENQA
For B2, the “changes in expression” value (HepG2 cells) is given as “changes in expression of at least several if not many acute phase genes”.

B3: C5a: 11,200-D cationic glycopeptide from the first 74 residues of the C5 alpha chain; recombinant human C5a (Sigma) used (protein, UniProt P01031 678-751, looked up)
C5a anaphylatoxin: TLQKKIEEIAAKYKHSVVKKCCYDGACVNNDETCEQRAARISLGPRCIKAFTECCVVASQLRANISHKDMQLGR
modifications: C5a anaphylatoxin
For B3, the “effect on C3 and albumin synthesis at higher concentrations” value [4] is listed as “dissipation of the effect”, the “effect on neutrophil chemotaxis at supersaturating concentrations” value (neutrophils) is listed as “abrogated at supersaturating concentra- tions” and the neutrophil activities mediated (neutrophils) is listed as “chemotactic ac- tivity, phagocytic activity, release of active oxygen inter- mediates, release of granular enzymes, and increase in adhesion/aggregationproperties in neutrophils”. For the same molecule, the “time at which increase in C3 synthesis becomes evident” value [5] was 6 h, the “effect on C3 synthesis” value [5] was “increases” and the “induction of serum amyloid A or C-reactive protein synthesis” value [6] was “no evidence for induc- tion”. For the same molecule, the “histamine release from mast cells” value [13] was “releaseofhistamine from mast cells”, the smooth muscle contraction [13] was “smooth muscle contraction” and the vascular permeability [13] was “increasedvascularpermeability”. The vasodilatation [13] was “vasodilatation”, the “binding to human endothelial cells” value (human endothelial cells) was “binds to human endothelial cells” and the “effect on C5 synthesis” value [7] was “no effect”. The “effect on fibrinogen and C4 synthesis” value [8] was “minimally and inconsistently increased”, the “effect on alpha1-ACT synthesis” value ([1]; 1 and 10 nM, Fig. 7) was “increases” and the “time at which decrease in albumin synthesis becomes evident” value ([9]; HepG2, 37°C) was 6 h. The “effect on albumin synthesis” value [9, 15] was “concentration-dependent decreases in synthesis of albumin”, the “effect on albumin synthesis” value [9, 16] was “decreases” and the “effect on complement Bf synthesis” value [10] was “increases”. The “inhibition of binding of 125I-C5a to HepG2 cells” value (C5aR in HepG2 cells) was “inhibit binding”, the “effect on transferrin synthesis” value [11] was “decreases” and the “effect on alpha1-AT synthesis” value [12] was “no effect”.

B4: oncostain M: cytokine (protein, UniProt P13725 26-221, looked up)
Oncostatin-M: AAIGSCSKEYRVLLGQLQKQTDLMQDTSRLLDPYIRIQGLDVPKLREHCRERPGAFPSEETLRGLGRRGFLQTLNATLGCVLHRLADLEQRLPKAQDLERSGLNIEDLEKLQMARPNILGLRNNIYCMAQLLDNSDTAEPTKAGRGASQPPTPTPASDAFQRKLEGCRFLHGYHRFMHSVGRVFSKWGESPNRSRR
In the case of B4, the “changes in expression” value (HepG2 cells) is listed as “changes in expression of at least several if not many acute phase genes”.
